Assay: log P (HPLC/MS data of the preparation examples)
Details: method [b]: LC-MS at pH 2.7, 0.1% formic acid in water / acetonitrile, linear gradient 10% to 95% acetonitrile

SMILES | log p
Cn1c(C(=NOCc2cccc(NC(=O)CCc3ccccc3)n2)c2ccccc2)nnc1C(F)(F)F [Example 201] | 3.85^[b]
Cn1c(C(=NOCc2cccc(NC(=O)C3CCCC3)n2)c2ccccc2)nnc1C(F)(F)F [Example 202] | 3.69^[b]
CC(C)COC(=O)Nc1cccc(CON=C(c2ccccc2)c2nnc(C(F)(F)F)n2C)n1 [Example 203] | 4.06^[b]
Cn1c(C(=NOCc2cccc(NC(=O)c3cccs3)n2)c2ccccc2)nnc1C(F)(F)F [Example 204] | 3.48^[b]
CCOc1ccc(C(=O)Nc2cccc(CON=C(c3ccccc3)c3nnc(C(F)(F)F)n3C)n2)cc1 [Example 205] | 3.94^[b]
CSCCC(=O)Nc1cccc(CON=C(c2ccccc2)c2nnc(C(F)(F)F)n2C)n1 [Example 206] | 3.15^[b]
CCCCC(=O)Nc1cccc(CON=C(c2ccccc2)c2nnc(C(F)(F)F)n2C)n1 [Example 207] | 3.58^[b]
Cn1ncnc1C(=NOCc1cccc(N2CCCCC2=O)n1)c1ccccc1 [Example 208] | 2.18^[b]
Cc1ncc(C(=NOCc2cccc(N)n2)c2ccccc2)n1C [Example 209] | 0.56^[b]
CCCCCOC(=O)Nc1cccc(CON=C(c2ccccc2)c2cnc(C)n2C)n1 [Example 211] | 3.13^[b]
CCCCCC(=O)Nc1cccc(CON=C(c2ccccc2)c2cnc(C)n2C)n1 [Example 212] | 2.08^[b]
Cc1nnsc1C(=NOCc1cccc(N2C(=O)c3ccccc3C2=O)n1)c1ccccc1 [Example 214] | 3.69^[b]
Cc1nnsc1C(=NOCc1cccc(N)n1)c1ccccc1 [Example 215] | 1.63^[b]
CCCCCC(=O)Nc1cccc(CON=C(c2ccccc2)c2snnc2C)n1 [Example 216] | 4.46^[b]
CCCCCOC(=O)Nc1cccc(CON=C(c2ccccc2)c2snnc2C)n1 [Example 217] | 5.11^[b]
Cc1nnsc1C(=NOCc1cccc(NC(=O)CC(C)C)n1)c1ccccc1 [Example 218] | 3.96^[b]
Cc1nnsc1C(=NOCc1cccc(NC(=O)Cc2ccccc2)n1)c1ccccc1 [Example 219] | 4.04^[b]
Cc1nnsc1C(=NOCc1cccc(NC(=O)CCc2ccccc2)n1)c1ccccc1 [Example 220] | 4.31^[b]
Cc1nnsc1C(=NOCc1cccc(NC(=O)CCC2CCCC2)n1)c1ccccc1 [Example 221] | 5^[b]
Cc1nnsc1C(=NOCc1cccc(NC(=O)OCC(C)C)n1)c1ccccc1 [Example 222] | 4.65^[b]
Cc1nnsc1C(=NOCc1cccc(NC(=O)CCC2CCCCC2)n1)c1ccccc1 [Example 223] | 5.41^[b]
CCCCC(=O)Nc1cccc(CON=C(c2ccccc2)c2snnc2C)n1 [Example 224] | 4.04^[b]
Cn1ccnc1C(=NOCc1cccc(N2C(=O)c3ccccc3C2=O)n1)c1cccc(F)c1 [Example 227] | 2.13^[b]
Cn1cnnc1C(=NOCc1cccc(C#CCC2CCCC2)n1)c1ccccc1 [Example 230] | 3.76^[b]
Cn1cnnc1C(=NOCc1cccc(C#CCC2CCCCC2)n1)c1ccccc1 [Example 231] | 4.14^[b]
Cn1cnnc1C(=NOCc1cccc(C#Cc2ccccc2)n1)c1ccccc1 [Example 232] | 3.15^[b]
Cn1ccnc1C(=NOCc1cccc(N)n1)c1cccc(F)c1 [Example 233] | 0.54^[b]
COc1ccccc1CC(=O)Nc1cccc(CON=C(c2ccccc2)c2ncnn2C)n1 [Example 234] | 3.17^[b]

Same assay, conditions: reversed phase HPLC column, pH 2.7

SMILES | chromatographic logP
Cn1cnnc1C(=NOCc1cccc(Br)n1)c1ccccc1 [Example 228, N-[(6-bromopyridin-2-yl)methoxy]-1-(4-methyl-4H-1,2,4-triazol-3-yl)-1-phenylmethanimine] | 2.28
Cn1cnnc1C(=NOCc1cccc(C#CC2CC2)n1)c1ccccc1 [Example 229, N-{[6-(cyclopropylethynyl)pyridin-2-yl]methoxy}-1-(4-methyl-4H-1,2,4-triazol-3-yl)-1-phenylmethanimine] | 2.56

Reference: patent US8981111B2 (priority 2008, dated 2015)
